Measurements reported in patent US7232904B2, “Crystal of arylethenesulfonamide derivative and preparation process thereof” (Astellas Pharma Inc., priority 2001, dated 2007).

Assays:
[1] = test system: ET receptors, particularly an ETA receptor; conditions: competitively inhibits binding to ET receptors; cited from earlier work
[2] = hygroscopicity of crystals (FIGS. 10 to 12); type: physicochemical; conditions: for moisture absorbed / moisture absorbed, corresponding moles of water: extent of moisture absorption with increase of humidity; for humidity above which moisture is absorbed: humidity exceeded before moisture absorption
Text: Also, FIGS. 10 to 12 show the hygroscopicity of the three kinds of novel crystals of the potassium salt of Compound A of the invention.

[3] = preservation stability in a reagent bottle; type: physicochemical; conditions: normal temperature, atmospheric pressure
Text: Additionally, the α-type crystal, β-type crystal and γ-type crystal of the potassium salt of Compound A of the invention are morphologically pure. […] Moreover, since it is hardly electrified and is excellent in fluidity, it has advantages such that works are easy in adjusting solid formulations such as powders, granules, tablets, and capsules.

[4] = heat stability of crystals; type: physicochemical; conditions: high melting point
[5] = listed as α-type crystal of the potassium salt of Compound A
[6] = listed as β-type crystal of the potassium salt of Compound A
[7] = listed as γ-type crystal of the potassium salt of Compound A

## COc1ccccc1Oc1c(NS(=O)(=O)/C=C/c2ccccc2)nc(-c2ncccn2)nc1OC.[K] [potassium salt of Compound A]
[1]
  affinity with ET receptors: high affinity

## COc1ccccc1Oc1c(NS(=O)(=O)/C=C/c2ccccc2)nc(-c2ncccn2)nc1OC.[K] [α-type crystal]
[2]; [5]
  moisture absorbed: about 6%
  moisture absorbed, corresponding moles of water: 1.8 moles of water
  humidity above which moisture is absorbed: exceeded 65%
[3]
  stable in the preservation state: over 2 years

## COc1ccccc1Oc1c(NS(=O)(=O)/C=C/c2ccccc2)nc(-c2ncccn2)nc1OC.[K] [β-type crystal]
[2]; [6]
  moisture absorbed: about 4%
  moisture absorbed, corresponding moles of water: 1.2 moles of water
  humidity above which moisture is absorbed: exceeded 45%
[4]
  heat stability (in words): excellent in heat stability

## COc1ccccc1Oc1c(NS(=O)(=O)/C=C/c2ccccc2)nc(-c2ncccn2)nc1OC.[K] [γ-type crystal]
[2]; [7]
  moisture absorbed: about 1%
  moisture absorbed, corresponding moles of water: 0.3 moles of water
[4]
  heat stability (in words): excellent in heat stability
